Experimental data: patent US10093623B2, “Cyclic amides as MetAP-2 inhibitors” (MERCK PATENT GmbH, priority 2012, dated 2018)

molecular target: MetAP-2 (Homo sapiens, UniProt P50579); test: MetAP-2 activity measurement (coupled enzymatic reactions, Met-Arg-Ser substrate, dianisidine detection at 450 nm); assay type: biochemical; conditions: Inhibition of MetAP-2; read-out: IC50 enzyme
How it was run: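 Coupled continuous assay with Met-Arg-Ser tripeptide substrate: released methionine oxidised by L-amino acid oxidase to give H2O2, which peroxidase uses to oxidise dianisidine, followed at 450 nm. Activity taken as slope of absorbance versus time over the visually linear region; dianisidine extinction coefficient converts to mol Met per time.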

Sequence of MetAP-2 (P50579 whole entry, species assumed): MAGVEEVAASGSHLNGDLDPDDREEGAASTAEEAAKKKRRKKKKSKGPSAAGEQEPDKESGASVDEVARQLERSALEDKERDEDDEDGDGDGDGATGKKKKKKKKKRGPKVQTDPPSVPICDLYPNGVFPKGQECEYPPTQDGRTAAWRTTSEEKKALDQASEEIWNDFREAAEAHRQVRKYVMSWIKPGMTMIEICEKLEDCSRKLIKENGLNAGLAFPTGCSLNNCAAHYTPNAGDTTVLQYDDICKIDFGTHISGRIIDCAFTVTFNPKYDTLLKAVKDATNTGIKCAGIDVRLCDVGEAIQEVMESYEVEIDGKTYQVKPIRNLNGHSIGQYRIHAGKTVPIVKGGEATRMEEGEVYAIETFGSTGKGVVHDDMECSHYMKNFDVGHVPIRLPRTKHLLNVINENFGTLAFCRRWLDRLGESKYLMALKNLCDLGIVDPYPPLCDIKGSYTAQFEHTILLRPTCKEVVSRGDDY

| IC50 [µM] | Compound |
| --- | --- |
| 0.01 to 1 | O=C1CCc2cc(N3CC[C@](O)(C(=O)NCc4ccc(F)c(F)c4F)C3=O)ccc2N1 [A284, N-(2,3,4-Trifluorobenzyl)-(S)-3-hydroxy-2-oxo-1-(2-oxo-1,2,3,4-tetrahydroquinolin-6-yl)-pyrrolidine-3-carboxamide] |
| > 10 | CNC(=O)c1cccc(N2CC[C@@](O)(C(=O)NCc3cc(F)cc(Cl)c3)C2=O)c1 [A162, N-(3-Chloro-5-fluorobenzyl)-(R)-3-hydroxy-1-(3-methyl-carbamoylphenyl)-2-oxo-pyrrolidine-3-carboxamide] |
| 0.01 to 1 | O=C1NCCc2cc(N3CC[C@](O)(C(=O)NCc4cc(F)cc(Cl)c4)C3=O)ccc21 [A96, N-(3-Chloro-5-fluorobenzyl)-(S)-3-hydroxy-2-oxo-1-(1-oxo-1,2,3,4-tetrahydroisoquinolin-6-yl)pyrrolidine-3-carboxamide] |
